Data reported in ChEMBL document CHEMBL1201862, “PubChem BioAssay data set” (2004).
Active and inactive are the calls of the source.

Key:
[1] = target: T1, Histone-lysine N-methyltransferase NSD2 (Homo sapiens, UniProt O96028); type: biochemical
T1 sequence (O96028 whole entry): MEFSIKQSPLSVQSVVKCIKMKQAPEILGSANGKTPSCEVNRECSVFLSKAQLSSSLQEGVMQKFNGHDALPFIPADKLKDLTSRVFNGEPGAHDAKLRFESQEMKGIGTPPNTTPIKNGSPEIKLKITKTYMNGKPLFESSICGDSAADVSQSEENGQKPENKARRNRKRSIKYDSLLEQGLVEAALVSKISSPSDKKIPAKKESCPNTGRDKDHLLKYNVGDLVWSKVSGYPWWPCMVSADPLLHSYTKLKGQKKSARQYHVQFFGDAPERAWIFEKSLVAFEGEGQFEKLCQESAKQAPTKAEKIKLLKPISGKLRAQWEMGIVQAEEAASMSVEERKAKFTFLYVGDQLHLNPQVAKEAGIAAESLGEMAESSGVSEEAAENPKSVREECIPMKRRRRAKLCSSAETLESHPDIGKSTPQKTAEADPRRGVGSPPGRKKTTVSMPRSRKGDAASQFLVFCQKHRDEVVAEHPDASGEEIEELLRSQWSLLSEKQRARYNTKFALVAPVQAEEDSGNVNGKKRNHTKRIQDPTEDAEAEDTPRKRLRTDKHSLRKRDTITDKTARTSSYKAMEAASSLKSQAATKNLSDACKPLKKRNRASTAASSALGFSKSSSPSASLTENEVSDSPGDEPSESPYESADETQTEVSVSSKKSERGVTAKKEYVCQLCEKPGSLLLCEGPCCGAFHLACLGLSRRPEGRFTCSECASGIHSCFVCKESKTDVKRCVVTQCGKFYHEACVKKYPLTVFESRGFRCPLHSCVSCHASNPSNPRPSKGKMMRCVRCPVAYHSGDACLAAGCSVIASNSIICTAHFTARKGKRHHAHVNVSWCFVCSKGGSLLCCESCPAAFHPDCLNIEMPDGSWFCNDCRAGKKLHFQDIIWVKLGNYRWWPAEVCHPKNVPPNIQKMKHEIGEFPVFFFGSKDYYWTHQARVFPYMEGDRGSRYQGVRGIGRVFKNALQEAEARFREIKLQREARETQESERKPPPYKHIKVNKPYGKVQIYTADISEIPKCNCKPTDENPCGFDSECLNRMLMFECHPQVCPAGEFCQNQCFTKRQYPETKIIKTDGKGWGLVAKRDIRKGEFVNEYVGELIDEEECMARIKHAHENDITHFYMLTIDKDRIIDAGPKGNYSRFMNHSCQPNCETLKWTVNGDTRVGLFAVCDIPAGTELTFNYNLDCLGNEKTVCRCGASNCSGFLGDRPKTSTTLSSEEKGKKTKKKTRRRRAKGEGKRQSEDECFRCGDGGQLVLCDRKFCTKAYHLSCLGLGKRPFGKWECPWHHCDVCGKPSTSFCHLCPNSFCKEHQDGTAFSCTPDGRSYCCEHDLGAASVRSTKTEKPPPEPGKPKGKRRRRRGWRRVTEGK

[2] = target: Protein-arginine deiminase type-4 (Homo sapiens, UniProt Q9UM07); experiment: IC50 against protein arginine deiminase 4 – biochemical, fluorescence readout, dose response (AID 492970)
[3] = target: Photoreceptor-specific nuclear receptor (Homo sapiens, UniProt Q9Y5X4); type: functional;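 further: potency for compounds that break the NR2E3 corepressor complex and count as activators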
[4] = target: Tyrosyl-DNA phosphodiesterase 2 (Homo sapiens, UniProt O95551); experiment: potency against TDP2 phosphodiesterase activity – biochemical, epi absorbance, IC50, dose response (AID 743297)
[5] = target: T2, 1-phosphatidylinositol 4,5-bisphosphate phosphodiesterase beta-3 (Homo sapiens, UniProt Q01970); experiment: Fluorescence-based biochemical high throughput dose response assay to identify inhibitors of phospholipase C isozymes (PLC-B3).
T2 sequence (Q01970 whole entry): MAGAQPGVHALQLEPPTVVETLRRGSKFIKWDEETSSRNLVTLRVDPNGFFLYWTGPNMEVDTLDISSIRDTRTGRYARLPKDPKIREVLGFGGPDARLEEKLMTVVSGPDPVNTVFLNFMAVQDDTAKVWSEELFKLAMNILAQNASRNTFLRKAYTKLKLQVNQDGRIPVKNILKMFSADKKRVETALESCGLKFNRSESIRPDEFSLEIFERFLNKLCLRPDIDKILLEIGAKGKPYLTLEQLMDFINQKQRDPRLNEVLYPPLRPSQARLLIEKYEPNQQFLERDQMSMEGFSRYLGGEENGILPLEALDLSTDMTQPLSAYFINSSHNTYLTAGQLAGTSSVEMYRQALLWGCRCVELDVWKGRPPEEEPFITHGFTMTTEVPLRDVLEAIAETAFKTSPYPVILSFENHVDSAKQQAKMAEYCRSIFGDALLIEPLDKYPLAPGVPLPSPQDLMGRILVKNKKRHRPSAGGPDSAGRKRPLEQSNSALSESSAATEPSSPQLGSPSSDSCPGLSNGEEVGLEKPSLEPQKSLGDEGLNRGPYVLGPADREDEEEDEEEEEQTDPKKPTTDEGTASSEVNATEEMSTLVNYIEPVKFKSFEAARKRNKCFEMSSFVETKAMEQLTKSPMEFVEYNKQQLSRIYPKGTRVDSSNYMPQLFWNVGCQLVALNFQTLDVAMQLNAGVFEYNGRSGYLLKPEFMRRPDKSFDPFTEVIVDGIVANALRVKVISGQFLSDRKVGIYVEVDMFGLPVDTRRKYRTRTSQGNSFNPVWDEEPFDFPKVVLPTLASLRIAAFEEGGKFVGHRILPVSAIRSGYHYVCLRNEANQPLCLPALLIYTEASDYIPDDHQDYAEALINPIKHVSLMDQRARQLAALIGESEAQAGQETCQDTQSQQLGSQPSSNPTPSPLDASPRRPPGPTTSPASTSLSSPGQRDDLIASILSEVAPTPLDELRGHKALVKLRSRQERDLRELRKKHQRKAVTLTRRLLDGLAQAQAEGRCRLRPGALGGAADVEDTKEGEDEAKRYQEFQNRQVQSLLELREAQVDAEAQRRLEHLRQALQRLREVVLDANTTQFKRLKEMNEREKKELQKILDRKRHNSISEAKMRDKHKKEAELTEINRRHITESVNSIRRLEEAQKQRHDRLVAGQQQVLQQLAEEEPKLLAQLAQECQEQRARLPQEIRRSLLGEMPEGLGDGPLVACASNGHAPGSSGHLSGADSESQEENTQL

[6] = test system: Streptococcus sp. 'group A'; experiment: Streptococcus pyogenes SK(-)GAS viability under kanamycin – luminescence, BacTiterGlo, confirmation, counter-screen for streptokinase expression inhibitor project, dose response (AID 1900); type: functional, organism-based

Sequence of Tyrosyl-DNA phosphodiesterase 2 (O95551 whole entry): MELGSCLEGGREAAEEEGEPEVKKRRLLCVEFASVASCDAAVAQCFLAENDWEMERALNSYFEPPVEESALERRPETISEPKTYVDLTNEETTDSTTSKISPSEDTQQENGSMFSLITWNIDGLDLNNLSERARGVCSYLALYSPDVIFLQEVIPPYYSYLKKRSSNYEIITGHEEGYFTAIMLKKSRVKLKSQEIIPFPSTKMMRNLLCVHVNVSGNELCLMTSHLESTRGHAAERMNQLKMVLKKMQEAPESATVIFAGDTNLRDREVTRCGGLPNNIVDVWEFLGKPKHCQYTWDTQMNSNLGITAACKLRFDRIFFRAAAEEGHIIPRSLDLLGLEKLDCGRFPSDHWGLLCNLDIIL
Sequence of Photoreceptor-specific nuclear receptor (Q9Y5X4 whole entry): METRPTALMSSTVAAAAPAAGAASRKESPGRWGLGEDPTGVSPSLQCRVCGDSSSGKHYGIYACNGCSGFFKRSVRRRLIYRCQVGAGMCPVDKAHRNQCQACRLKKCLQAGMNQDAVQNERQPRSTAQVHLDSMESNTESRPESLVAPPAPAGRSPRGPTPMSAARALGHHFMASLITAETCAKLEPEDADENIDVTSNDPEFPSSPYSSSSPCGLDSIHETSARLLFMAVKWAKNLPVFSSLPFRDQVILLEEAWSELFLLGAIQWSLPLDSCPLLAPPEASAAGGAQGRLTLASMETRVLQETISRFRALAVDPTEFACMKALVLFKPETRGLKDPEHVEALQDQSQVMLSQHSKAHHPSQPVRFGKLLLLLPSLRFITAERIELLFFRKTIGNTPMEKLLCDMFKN
Sequence of Protein-arginine deiminase type-4 (Q9UM07 whole entry): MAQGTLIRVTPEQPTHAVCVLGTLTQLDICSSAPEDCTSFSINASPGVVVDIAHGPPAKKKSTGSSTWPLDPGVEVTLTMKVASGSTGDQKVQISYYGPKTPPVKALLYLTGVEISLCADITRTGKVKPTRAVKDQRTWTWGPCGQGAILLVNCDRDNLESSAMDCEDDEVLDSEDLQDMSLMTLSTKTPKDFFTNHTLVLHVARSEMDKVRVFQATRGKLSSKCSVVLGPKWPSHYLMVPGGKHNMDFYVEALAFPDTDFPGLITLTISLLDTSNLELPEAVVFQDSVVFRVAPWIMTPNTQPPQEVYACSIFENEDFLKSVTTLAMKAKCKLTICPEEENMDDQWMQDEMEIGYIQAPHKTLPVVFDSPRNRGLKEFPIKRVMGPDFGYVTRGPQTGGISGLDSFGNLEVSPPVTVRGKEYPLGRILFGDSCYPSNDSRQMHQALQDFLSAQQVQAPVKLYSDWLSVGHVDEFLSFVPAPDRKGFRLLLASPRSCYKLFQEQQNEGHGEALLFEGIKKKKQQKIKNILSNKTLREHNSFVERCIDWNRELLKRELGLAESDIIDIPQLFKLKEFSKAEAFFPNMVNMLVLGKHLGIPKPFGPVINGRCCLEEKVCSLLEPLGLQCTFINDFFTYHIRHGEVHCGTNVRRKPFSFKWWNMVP

Structure (SMILES): COc1ccc(NS(=O)(=O)c2ccc3c(c2)[C@H]2C=CC[C@H]2[C@@H](c2ccc(C(=O)O)cc2)N3)cc1
- AC50 [1]: > 20 µM (inactive)

Structure (SMILES): Cn1nc(-c2ccccn2)nc2c(=O)n(C)c(=O)nc1-2
- IC50 [2]: 21 µM (inactive)
- IC50 [3]: > 39.8 µM (not active)
- IC50 [4]: 0.21 µM (active)
- IC50 [5]: > 122 µM (inactive)

Structure (SMILES): CCCCCCCCCCn1c2c(c(=N)c3c1CCC3)CCC2
- EC50 [6]: 5.58 µM (active)
